Data on one molecule can be found in patent US20260124240A1, “DRUG RESISTANT IMMUNE CELLS” (The Regents of the University of California, priority 2022, published 2026).

Structures are written as SMILES.

The subject of one data set is WT MOLM13 cells. The experiment in a line: Venetoclax sensitivity of WT MOLM13 cells. The class given is cell-based. Particulars: Homo sapiens, MOLM-13. From the text: (§1) For longer-term assays to examine the ability of BCL2G101V/G101V iPSC-derived NK cells to mediate effective killing of venetoclax-resistant AML cells, MOLM13 cells that are venetoclax-resistant were generated.

Data set [1] relates to venetoclax-resistant MOLM13 cells. The data set is described as follows: Venetoclax sensitivity of venetoclax-resistant MOLM13 cells. The class given is cell-based. Here is the method:
The MOLM13 cells lines were cultured continuously in increasing concentrations of venetoclax over 6 weeks to generate and select for venetoclax-resistant cells. The resulting cells could be maintained in 3 μM venetoclax without toxicity. The resistant cells were cultured continuously in the presence of venetoclax.
as §1

For data set [2], the system named is luciferase-expressing, venetoclax-resistant MOLM-13 cells. The data set is described as follows: Mouse xenograft study (MOLM13 AML). Type of data set: in vivo. Conditions: NSG mice, 1×10^7 NK cells IV, venetoclax 50 mg/kg daily for 21 days where given. Here is the method: FIG. 15: A schema of NK cell dosing regimen and venetoclax treatment plan. NSG mice were inoculated IV with 2.5×10^5 luciferase-expressing MOLM13 cells, and tumor engraftment was assessed by IVIS imaging 4 days later for baseline pre-treatment grouping. On day 4 after tumor inoculation, mice were either left untreated or treated with 1×10^7 WT iPSC-derived NK cells or BCL2 G101V iPSC-derived NK cells alone or in combination with venetoclax for 21 days. NK cells were supported by injection of IL-15 for the first week and IL-2 for three weeks with IVIS imaging done as indicated to monitor tumor progression.
Eight-week-old NOD/SCID/γc−/− (NSG) mice (Jackson Laboratories, n=5 per group) were used for in vivo experiments. Mice received 2.5×10^5 luciferase-expressing MOLM13 tumor cells intravenously. Mice were sub-lethally irradiated (225 cGy) 4 days after tumor engraftment. 107 NK cells/mouse were injected IV on the day of irradiation. NK cells were supported by the injection of IL-2 and IL-15 as reported previously 27, 28. […] Tumor burden was determined by BLI using the Xenogen IVIS Imaging system. […]
To evaluate the anti-tumor activity of BCL2G101V/G101V NK cells in vivo, BCL2G101V/G101V iPSC-derived NK cell killing of MOLM13 AML cells was assessed in a mouse xenograft tumor model. […] Tumor growth was monitored by bioluminescent imaging (BLI) (FIG. 16A).

Data set [3] concerns WT iPSC-derived NK cells (BCL2WT/WT). The experiment in a line: Venetoclax dose response / cell survival assay on WT iPSC-derived NK cells. Type of data set: cell-based, human. The procedure:
(§2) FIGS. 12A-12H: BCL2 G101V iPSC-derived NK cells are resistant to venetoclax and anti-apoptotic BCL2 family member levels are unchanged. Dose response curves for WT iPSC-derived NK (FIG. 12A), Homozygous BCL2 G101V iPSC-derived NK cells (FIG. 12B), and Heterozygous BCL2 G101V iPSC-derived NK cells (FIG. 12C) treated with Venetoclax and assessed for viability at 72 hours post treatment. FIG. 12D. Dose response for WT iPSC-derived NK and homozygous BCL2 G101V iPSC-derived NK cells treated with dexamethasone and assessed for viability at 72 hours post treatment. […] real-time PCR analysis of BCL2 (FIG. 12E), BCL-XL (FIG. 12F), and MCL1 (FIG. 12G) mRNA level for WT iPSC-derived NK and BCL2 G101V iPSC-derived NK cells vehicle or venetoclax treated. FIG. 12H. Immunoblots for BCL2, and BCL-XL protein levels with a β-actin loading control.
(§3) Resistance to venetoclax of the heterozygous and homozygous BCL2 G101V iPSC-derived NK cells was tested in cell survival assays.

In data set [4] the test system is Heterozygous BCL2 G101V iPSC-derived NK cells (BCL2G101V/WT). The data set is described as follows: Venetoclax dose response / cell survival assay on heterozygous BCL2 G101V iPSC-derived NK cells. Type of data set: cell-based. Particulars: Homo sapiens, viability at 72 hours post treatment. Here is the method:
as §2, §3

In data set [5] the test system is Homozygous BCL2 G101V iPSC-derived NK cells (1F6). The experiment in a line: Venetoclax dose response / cell survival assay on homozygous BCL2 G101V (1F6) iPSC-derived NK cells. Conditions: Homo sapiens; homozygous BCL2G101V/G101V (1F6) NK cells; viability at 72 hours post treatment; read-out: EC50 where 50% of the NK cells are killed by venetoclax. Type of data set: cell-based. Here is the method:
as §2, §3

The conditions of data set [6]: dose of 400 mg/day; cited from earlier work.

Usually IC50 stands for the point on the concentration scale where inhibition reaches its midpoint. A high value points to lower potency. A word on the EC50: it is the concentration at which the effect is half-maximal.

On to `CC1(C)CCC(CN2CCN(c3ccc(C(=O)NS(=O)(=O)c4ccc(NCC5CCOCC5)c([N+](=O)[O-])c4)c(Oc4cnc5[nH]ccc5c4)c3)CC2)=C(c2ccc(Cl)cc2)C1` [venetoclax], for which the half-maximal inhibitory concentration (IC50) with WT MOLM13 cells amounted to 24 nM. Besides, the “increased resistance to venetoclax compared to WT MOLM13 cells” value in data set [1] (venetoclax-resistant MOLM13) is reported as “over 100 fold”. Also, in data set [1] (venetoclax-resistant MOLM13, selected over 6 weeks), the “venetoclax concentration in which resistant cells could be maintained without toxicity” value stood at 3 µM. For the same molecule, in data set [2], the median survival was 18.8 days. Besides, the half-maximal effective concentration (EC50) in data set [3] (Homo sapiens, WT iPSC-derived NK cells, viability at 72 hours post treatment, read-out: EC50 where 50% of the NK cells are killed by venetoclax) was determined as 63.7 nM; in data set [4], 3550 nM; in data set [5], 6020 nM. Moreover, the “toxicity to unengineered NK cells” value in data set [3] (at serum concentration of 2.3 μmol/L) is recorded as “toxic”. Further, the serum concentration in data set [6] is 2300 nM.
